Measured values published in patent US9315498B2, “Arlethynyl derivatives” (Hoffmann-La Roche Inc., priority 2010, dated 2016).

Target: human mGlu5a receptor (Homo sapiens (Human), UniProt P41594)
Assay: Intracellular Ca2+ mobilization assay (mGlu5 PAM)
Type: cell-based
Conditions: for EC50: HEK-293 cells stably transfected with human mGlu5a, L-glutamate added at EC20 after pre-incubation with test compound, read-out: EC50 (nM) mGlu5PAM; for Emax: maximal response in % of the maximal stimulatory effect obtained with saturating concentrations of L-glutamate, read-out: Eff. (%)
Description: A monoclonal HEK-293 cell line stably transfected with a cDNA encoding for the human mGlu5a receptor was generated; for the work with mGlu5 Positive Allosteric Modulators (PAMs), a cell line with low receptor expression levels and low constitutive receptor activity was selected to allow the differentiation of agonistic versus PAM activity. Cells were cultured according to standard protocols (Freshney, 2000) in Dulbecco's Modified Eagle Medium with high glucose supplemented with 1 mM glutamine, 10% (vol/vol) heat-inactivated bovine calf serum, Penicillin/Streptomycin, 50 μg/ml hygromycin and 15 μg/ml blasticidin (all cell culture reagents and antibiotics from Invitrogen, Basel, Switzerland).
About 24 hrs before an experiment, 5×10^4 cells/well were seeded in poly-D-lysine coated, black/clear-bottomed 96-well plates. The cells were loaded with 2.5 μM Fluo-4AM in loading buffer (1×HBSS, 20 mM HEPES) for 1 hr at 37° C. and washed five times with loading buffer. The cells were transferred into a Functional Drug Screening System 7000 (Hamamatsu, Paris, France), and 11 half logarithmic serial dilutions of test compound at 37° C. were added and the cells were incubated for 10-30 min. with on-line recording of fluorescence. Following this pre-incubation step, the agonist L-glutamate was added to the cells at a concentration corresponding to EC20 (typically around 80 μM) with on-line recording of fluorescence; in order to account for day-to-day variations in the responsiveness of cells, the EC20 of glutamate was determined immediately ahead of each experiment by recording of a full dose-response curve of glutamate.
Responses were measured as peak increase in fluorescence minus basal (i.e. fluorescence without addition of L-glutamate), normalized to the maximal stimulatory effect obtained with saturating concentrations of L-glutamate. Graphs were plotted with the % maximal stimulatory using XLfit, a curve fitting program that iteratively plots the data using Levenburg Marquardt algorithm. The single site competition analysis equation used was y=A+((B−A)/(1+((x/C)D))), where y is the % maximal stimulatory effect, A is the minimum y, B is the maximum y, C is the EC50, x is the log10 of the concentration of the competing compound and D is the slope of the curve (the Hill Coefficient). From these curves the EC50 (concentration at which half maximal stimulation was achieved), the Hill coefficient as well as the maximal response in % of the maximal stimulatory effect obtained with saturating concentrations of L-glutamate were calculated.
A depression of the signal observed after addition of the EC20 concentration of L-glutamate was indicative of an inhibitory activity of the test compound.

Chain of human mGlu5a receptor (P41594 other isoform, or with tags, fused parts or gaps): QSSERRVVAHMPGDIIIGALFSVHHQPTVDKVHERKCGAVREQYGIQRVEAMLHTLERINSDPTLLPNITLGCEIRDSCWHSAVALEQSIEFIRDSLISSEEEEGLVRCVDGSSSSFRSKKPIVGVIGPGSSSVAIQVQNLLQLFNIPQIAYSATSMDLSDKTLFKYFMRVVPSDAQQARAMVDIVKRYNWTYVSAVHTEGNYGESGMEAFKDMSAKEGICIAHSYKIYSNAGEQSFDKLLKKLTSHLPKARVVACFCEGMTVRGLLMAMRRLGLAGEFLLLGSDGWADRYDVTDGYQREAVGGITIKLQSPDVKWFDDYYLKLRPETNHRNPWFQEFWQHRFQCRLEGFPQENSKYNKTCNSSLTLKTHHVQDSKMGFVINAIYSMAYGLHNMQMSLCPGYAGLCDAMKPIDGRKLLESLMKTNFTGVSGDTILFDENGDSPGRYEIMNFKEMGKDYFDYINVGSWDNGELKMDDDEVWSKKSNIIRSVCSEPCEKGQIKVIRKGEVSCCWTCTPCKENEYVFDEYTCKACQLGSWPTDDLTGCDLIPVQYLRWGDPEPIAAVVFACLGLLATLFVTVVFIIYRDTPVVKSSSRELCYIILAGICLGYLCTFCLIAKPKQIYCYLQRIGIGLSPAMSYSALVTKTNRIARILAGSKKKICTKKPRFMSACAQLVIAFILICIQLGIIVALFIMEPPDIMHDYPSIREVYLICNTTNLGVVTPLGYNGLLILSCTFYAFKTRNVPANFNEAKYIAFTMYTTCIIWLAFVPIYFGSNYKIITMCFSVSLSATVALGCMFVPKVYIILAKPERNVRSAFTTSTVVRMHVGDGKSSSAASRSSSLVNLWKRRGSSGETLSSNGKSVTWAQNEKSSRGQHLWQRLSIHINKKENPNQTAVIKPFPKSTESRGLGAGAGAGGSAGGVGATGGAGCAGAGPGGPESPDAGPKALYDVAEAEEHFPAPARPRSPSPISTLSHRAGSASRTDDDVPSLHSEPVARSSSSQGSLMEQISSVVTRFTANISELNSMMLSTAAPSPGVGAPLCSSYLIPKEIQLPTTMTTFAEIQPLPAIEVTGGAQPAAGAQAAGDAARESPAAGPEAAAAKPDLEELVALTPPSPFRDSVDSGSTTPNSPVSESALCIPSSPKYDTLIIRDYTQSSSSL

SMILES | EC50 | Emax
CN1C(=O)N(c2ccc(C#Cc3cncc(F)c3)cn2)CC1(C)C [Example 49, 1-[5-(5-Fluoro-pyridin-3-ylethynyl)-pyridin-2-yl]-3,4,4-trimethyl-imidazolidin-2-one] | 37 nM | 91%
CC1(C)CCN(c2ccc(C#Cc3ccccc3)nn2)C(=O)C1 [Example 151, 4,4-Dimethyl-1-(6-(phenylethynyl)pyridazin-3-yl)piperidin-2-one] | 19 nM | 130%
CN1C(=O)N(c2cnc(C#Cc3ccc(F)cc3)cn2)CC1(C)C [Example 159, 1-(5-((4-Fluorophenyl)ethynyl)pyrazin-2-yl)-3,4,4-trimethylimidazolidin-2-one] | 49 nM | 49%
CC1(C)CCN(c2ccc(C#Cc3ccccc3)nn2)C(=O)O1 [Example 153, 6,6-Dimethyl-3-(6-(phenylethynyl)pyridazin-3-yl)-1,3-oxazinan-2-one] | 14 nM | 86%
CC1(C)CCN(c2ccc(C#Cc3cccc(F)c3)cn2)C(=O)C1 [Example 88, 5′-(3-Fluoro-phenylethynyl)-4,4-dimethyl-3,4,5,6-tetrahydro-[1,2′]bipyridinyl-2-one] | 19 nM | 110%
COC1C(=O)N(c2ccc(C#Cc3ccccc3)cn2)CC1(C)C (racemic) [Example 60, (RS)-3-Methoxy-4,4-dimethyl-1-(5-phenylethynyl-pyridin-2-yl)-pyrrolidin-2-one] | 35 nM | 89%
CN1C(=O)N(c2ccc(C#Cc3ccc(F)cc3)cn2)CC12CC2 [Example 112, 6-[5-(4-Fluoro-phenylethynyl)-pyridin-2-yl]-4-methyl-4,6-diaza-spiro[2.4]heptan-5-one] | 80 nM | 89%
CC1CN(c2ncc(C#Cc3ccccc3)cn2)C(=O)OC1(C)C (racemic) [Example 145, (RS)-5,6,6-Trimethyl-3-(5-phenylethynyl-pyrimidin-2-yl)-[1,3]oxazinan-2-one] | 38 nM | 93%
CN1C(=O)N(c2ccc(C#Cc3ccccc3)cn2)CC1C(C)(C)C (racemic) [Example 107, (RS)-4-tert-Butyl-3-methyl-1-(5-phenylethynyl-pyridin-2-yl)-imidazolidin-2-one] | 59 nM | 106%
CN1C(=O)N(c2ncc(C#Cc3ccc(F)cc3)cc2F)CC1(C)C [Example 110] | 96 nM | 117%
CC(C)N1C(=O)N(c2ccc(C#Cc3ccccc3)cn2)C2CCCCC21 (stereo not drawn) [Example 101, (3aSR,7aRS)-(3aRS,7RS)-1-Isopropyl-3-(5-phenylethynyl-pyridin-2-yl)-octahydro-benzoimidazol-2-one] | 39 nM | 77%
CN1C(=O)N(c2ccc(C#Cc3cccc(Cl)c3)cn2)CC1(C)C [Example 54, 1-[5-(3-Chloro-phenylethynyl)-pyridin-2-yl]-3,4,4-trimethyl-imidazolidin-2-one] | 32 nM | 47%
CC(C)(C)C1CN(c2ccc(C#Cc3ccccc3)cn2)C(=O)O1 (racemic) [Example 8, (5RS)-5-tert-Butyl-3-(5-phenylethynyl-pyridin-2-yl)-oxazolidin-2-one] | 17 nM | 62%
CC1(C)CCN(c2cnc(C#Cc3ccccc3)cn2)C(=O)N1 [Example 164, 4,4-Dimethyl-1-(5-(phenylethynyl)pyrazin-2-yl)tetrahydropyrimidin-2(1H)-one] | 329 nM | 89%
CN1C(=O)N(c2ccc(C#Cc3ccc(F)cc3)cn2)CCC1(C)C [Example 69, 1-[5-(4-Fluoro-phenylethynyl)-pyridin-2-yl]-3,4,4-trimethyl-tetrahydro-pyrimidin-2-one] | 49 nM | 107%
CC1(C)CN(c2ccc(C#Cc3cc(F)ccc3F)cn2)C(=O)O1 [Example 34, 3-[5-(2,5-Difluoro-phenylethynyl)-pyridin-2-yl]-5,5-dimethyl-oxazolidin-2-one] | 11 nM | 38%
CC1(C)CCN(c2cnc(C#Cc3ccccc3)cn2)C(=O)C1 [Example 163, 4,4-Dimethyl-1-(5-(phenylethynyl)pyrazin-2-yl)piperidin-2-one] | 69 nM | 74%
CC1(C)CCN(c2ccc(C#Cc3ccccc3)cn2)C(=O)C1 [Example 87, 4,4-Dimethyl-5′-phenylethynyl-3,4,5,6-tetrahydro-[1,2′]bipyridinyl-2-one] | 12 nM | 89%
CC1(C)CCN(c2ncc(C#Cc3cc(F)ccc3F)cn2)C(=O)C1 [Example 136, 1-[5-(2,5-Difluoro-phenylethynyl)-pyrimidin-2-yl]-4,4-dimethyl-piperidin-2-one] | 31 nM | 49%
CN1C(=O)N(c2ccc(C#Cc3cncnc3)cn2)CC1(C)C [Example 55, 3,4,4-Trimethyl-1-(5-pyrimidin-5-ylethynyl-pyridin-2-yl)-imidazolidin-2-one] | 54 nM | 110%
CC1(C)CN(c2ccc(C#Cc3cncnc3)cn2)C(=O)O1 [Example 30, 5,5-Dimethyl-3-(5-pyrimidin-5-ylethynyl-pyridin-2-yl)-oxazolidin-2-one] | 80 nM | 43%
CC1CN(c2ncc(C#Cc3cccc(F)c3)cn2)C(=O)OC1(C)C (racemic) [Example 148, (RS)-3-[5-(3-Fluoro-phenylethynyl)-pyrimidin-2-yl]-5,6,6-trimethyl-[1,3]oxazinan-2-one] | 39 nM | 75%
CN1C(=O)N(c2ccc(C#Cc3cncc(Cl)c3)cn2)CC1(C)C [Example 51, 1-[5-(5-Chloro-pyridin-3-ylethynyl)-pyridin-2-yl]-3,4,4-trimethyl-imidazolidin-2-one] | 29 nM | 45%
CN1C(=O)N(c2ccc(C#Cc3cccc(F)c3)nn2)[C@@H]2CCC[C@@H]21 (racemic) [Example 174, (3aSR,6aRS)-1-[6-(3-Fluoro-phenylethynyl)-pyridazin-3-yl]-3-methyl-hexahydro-cyclopentaimidazol-2-one] | 12 nM | 56%
CN1C(=O)N(c2ncc(C#Cc3ccccc3)cn2)CCC1(C)C [Example 137, 3,4,4-Trimethyl-5′-phenylethynyl-3,4,5,6-tetrahydro-[1,2′]bipyrimidinyl-2-one] | 66 nM | 74%
O=C1O[C@H]2CCC[C@H]2N1c1ccc(C#Cc2cccnc2)cn1 (racemic) [Example 23, (3aRS,6aSR)-3-(5-Pyridin-3-ylethynyl-pyridin-2-yl)-hexahydro-cyclopentaoxazol-2-one] | 12 nM | 92%
CC1(C)CN(c2ccc(C#Cc3ccccc3)nn2)C(=O)O1 [Example 152, 5,5-Dimethyl-3-(6-(phenylethynyl)pyridazin-3-yl)oxazolidin-2-one] | 15 nM | 112%
COC1CN(c2ccc(C#Cc3ccccc3)cn2)C(=O)OC1(C)C (racemic) [Example 114, (RS)-5-Methoxy-6,6-dimethyl-3-(5-phenylethynyl-pyridin-2-yl)-[1,3]oxazinan-2-one] | 22 nM | 57%
Cc1cccc(C#Cc2ccc(N3CCC(C)(C)OC3=O)nc2)c1 [Example 78, 6,6-Dimethyl-3-(5-m-tolylethynyl-pyridin-2-yl)-[1,3]oxazinan-2-one] | 24 nM | 72%
